{"source": "paper PMC7126465", "about": "(Bioorganic & Medicinal Chemistry, 2017)", "key": {"VZV TK− (07-1)": {"tested_on": "VZV TK− (07-1)", "conditions": "read-out: EC50 (HEL) VZV TK− (07-1); HEL cells; ref Krecmerova et al. (Ref. [7]); cited from earlier work"}, "HCMV (AD-169)": {"tested_on": "HCMV (AD-169)", "conditions": "read-out: EC50 (HEL) HCMV (AD-169); HEL cells; ref Krecmerova et al. (Ref. [7]); cited from earlier work"}, "Vaccinia virus": {"tested_on": "Vaccinia virus", "conditions": "read-out: EC50 (HEL) Vaccinia virus; HEL cells; ref Krecmerova et al. (Ref. [7]); cited from earlier work"}, "[1]": {"tested_on": "human embryonic lung (HEL) cells", "conditions": "ref Krecmerova et al. (Ref. [7]); cited from earlier work"}, "VZV TK+ (Oka)": {"tested_on": "VZV TK+ (Oka)", "conditions": "read-out: EC50 (HEL) VZV TK+ (Oka); HEL cells; ref Krecmerova et al. (Ref. [7]); cited from earlier work"}, "HCMV (Davis)": {"tested_on": "HCMV (Davis)", "conditions": "read-out: EC50 (HEL) HCMV (Davis); HEL cells; ref Krecmerova et al. (Ref. [7]); cited from earlier work"}, "[2]": {"tested_on": "herpesviruses (HSV, VZV, HCMV)", "test": "Anti-herpesvirus activity overall", "type": "cell-based", "conditions": "HEL cells"}, "HSV-1 (Kos)": {"tested_on": "HSV-1 (Kos)", "conditions": "read-out: EC50 (HEL) HSV-1 (Kos); HEL cells; ref Krecmerova et al. (Ref. [7]); cited from earlier work"}, "[3]": {"tested_on": "human embryonic lung (HEL) cells", "conditions": "read-out: Cytotoxicity CC50, ref Krecmerova et al. (Ref. [7]); cited from earlier work"}, "HSV-2 (G)": {"tested_on": "HSV-2 (G)", "conditions": "read-out: EC50 (HEL) HSV-2 (G); HEL cells; ref Krecmerova et al. (Ref. [7]); cited from earlier work"}}, "data": [{"compound": "Nc1ncn(CCOCP(=O)(O)O)c(=O)n1", "note": "[Compound 6, 1-[2-(phosphonomethoxy)ethyl]-5-azacytosine]", "values": [{"measurement": "EC50", "setting": "VZV TK− (07-1)", "result": 40, "unit": "µM"}, {"measurement": "EC50", "setting": "HCMV (AD-169)", "result": 195, "unit": "µM"}, {"measurement": "EC50", "setting": "Vaccinia virus", "result": "> 398", "unit": "µM"}, {"measurement": "Cytotoxicity MCC", "setting": "[1]", "result": ">398", "unit": "µM"}, {"measurement": "EC50", "setting": "VZV TK+ (Oka)", "result": 100, "unit": "µM"}, {"measurement": "EC50", "setting": "HCMV (Davis)", "result": 147, "unit": "µM"}, {"measurement": "Anti-herpesvirus activity (in words)", "setting": "[2]", "result": "marginal anti-herpesvirus activity"}, {"measurement": "EC50", "setting": "HSV-1 (Kos)", "result": 39, "unit": "µM"}, {"measurement": "CC50", "setting": "[3]", "result": "> 200", "unit": "µM"}, {"measurement": "EC50", "setting": "HSV-2 (G)", "result": 103, "unit": "µM"}]}]}
